Measurements from PMC10866072, “Design, synthesis, molecular modelling and biological evaluation of novel 6-amino-5-cyano-2-thiopyrimidine derivatives as potent anticancer agents against leukemia and apoptotic inducers” (Journal of Enzyme Inhibition and Medicinal Chemistry, 2024).

Key:
PC-3 = format: cell-based; conditions: one dose 10^-5 M, 48 h
ACHN = format: cell-based; conditions: one dose 10^-5 M, 48 h
NCI-H522 = format: cell-based; conditions: one dose 10^-5 M, 48 h
NCI-H226 = format: cell-based; conditions: one dose 10^-5 M, 48 h
OVCAR-5 = format: cell-based; conditions: one dose 10^-5 M, 48 h
NCI-H460 = format: cell-based; conditions: one dose 10^-5 M, 48 h
HOP-62 = format: cell-based; conditions: one dose 10^-5 M, 48 h
DU-145 = format: cell-based; conditions: one dose 10^-5 M, 48 h
UACC-257 = format: cell-based; conditions: one dose 10^-5 M, 48 h
SF-295 = format: cell-based; conditions: one dose 10^-5 M, 48 h
MDA-MB-435 = format: cell-based; conditions: one dose 10^-5 M, 48 h
SK-MEL-5 = format: cell-based; conditions: one dose 10^-5 M, 48 h
HOP-92 = format: cell-based; conditions: one dose 10^-5 M, 48 h
UO-31 = format: cell-based; conditions: one dose 10^-5 M, 48 h
HL-60(TB) = format: cell-based; conditions: one dose 10^-5 M, 48 h
HCT-116 = format: cell-based; conditions: one dose 10^-5 M, 48 h
SF-539 = format: cell-based; conditions: one dose 10^-5 M, 48 h
MOLT-4 = format: cell-based; conditions: one dose 10^-5 M, 48 h
MDA-MB-231/ATCC = format: cell-based; conditions: one dose 10^-5 M, 48 h
A549/ATCC = format: cell-based; conditions: one dose 10^-5 M, 48 h
U251 = format: cell-based; conditions: 48 h
CAKI-1 = format: cell-based; conditions: one dose 10^-5 M, 48 h
CCRF-CEM = format: cell-based; conditions: one dose 10^-5 M, 48 h
OVCAR-4 = format: cell-based; conditions: one dose 10^-5 M, 48 h
MCF7 = format: cell-based; conditions: one dose 10^-5 M, 48 h
RPMI-8226 = format: cell-based; conditions: one dose 10^-5 M, 48 h
NCI-H23 = format: cell-based; conditions: one dose 10^-5 M, 48 h
T-47D = format: cell-based; conditions: one dose 10^-5 M, 48 h
HS 578T = format: cell-based; conditions: one dose 10^-5 M, 48 h, HS 578T
MALME-3M = format: cell-based; conditions: one dose 10^-5 M, 48 h
A498 = format: cell-based; conditions: one dose 10^-5 M, 48 h
SK-OV-3 = format: cell-based; conditions: one dose 10^-5 M, 48 h
EKVX = format: cell-based; conditions: one dose 10^-5 M, 48 h
SR = format: cell-based; conditions: one dose 10^-5 M, 48 h
OVCAR-3 = format: cell-based; conditions: one dose 10^-5 M, 48 h
TK-10 = format: cell-based; conditions: one dose 10^-5 M, 48 h
SNB-19 = format: cell-based; conditions: one dose 10^-5 M, 48 h
M14 = format: cell-based; conditions: one dose 10^-5 M, 48 h
MDA-MB-468 = format: cell-based; conditions: one dose 10^-5 M, 48 h
786-0 = format: cell-based; conditions: one dose 10^-5 M, 48 h
OVCAR-8 = format: cell-based; conditions: one dose 10^-5 M, 48 h
RXF 393 = format: cell-based; conditions: one dose 10^-5 M, 48 h
HCC-2998 = format: cell-based; conditions: one dose 10^-5 M, 48 h
SK-MEL-2 = format: cell-based; conditions: one dose 10^-5 M, 48 h
HT29 = format: cell-based; conditions: 48 h
IGROV1 = format: cell-based; conditions: 48 h
KM12 = format: cell-based; conditions: one dose 10^-5 M, 48 h
SNB-75 = format: cell-based; conditions: one dose 10^-5 M, 48 h
HCT-15 = format: cell-based; conditions: one dose 10^-5 M, 48 h
K-562 = format: cell-based; conditions: 48 h
SK-MEL-28 = format: cell-based; conditions: one dose 10^-5 M, 48 h
SN12C = format: cell-based, human; conditions: one dose 10^-5 M, 48 h
UACC-62 = format: cell-based; conditions: one dose 10^-5 M, 48 h
LOX IMVI = format: cell-based; conditions: one dose 10^-5 M, 48 h
SW-620 = format: cell-based; conditions: one dose 10^-5 M, 48 h
SF-268 = format: cell-based; conditions: one dose 10^-5 M, 48 h
[1] = tested on: full NCI 60 cell lines panel
[2] = Homo sapiens, read-out: % growth

In the case of “4-Amino-6–(4-chlorophenyl)-2-mercaptopyrimidine-5-carboximidohydrazide [Compound 2b]”, the “% growth” value (PC-3) is reported as 111.23%, the “% growth” value (ACHN) is reported as 102.02% and the “% growth” value (NCI-H522) is reported as 98.92%. The “% growth” value (NCI-H226) was 121.25%, the “% growth” value (OVCAR-5) was 103.26% and the “% growth” value (NCI-H460) was 107.93%. The “% growth” value (HOP-62) was 113.92%, the “% growth” value (DU-145) was 106.23% and the “% growth” value (UACC-257) was 114.55%. For the same compound, the “% growth” value (SF-295) was 93.17%, the “% growth” value (MDA-MB-435) was 96.65% and the “% growth” value (SK-MEL-5) was 100.02%. For the same compound, the “% growth” value (HOP-92) was 107.66%, the “% growth” value (UO-31) was 93.82% and the “% growth” value (HL-60(TB)) was 98.64%. The “% growth” value (HCT-116) was 119.61%, the “% growth” value (SF-539) was 103.32% and the “% growth” value (MOLT-4) was 99.19%. For the same compound, the “% growth” value (MDA-MB-231/ATCC) was 100.62%, the “% growth” value (A549/ATCC) was 110.21% and the “% growth” value (U251; one dose 10^-5 M) was 105.90%. For the same compound, the “% growth” value (CAKI-1) was 99.31%, the “% growth” value (CCRF-CEM) was 100.09% and the “% growth” value (OVCAR-4) was 103.90%. The “% growth” value (MCF7) was 98.64%, the “% growth” value (RPMI-8226) was 94.54% and the “% growth” value (NCI-H23) was 107.36%. The “% growth” value (T-47D) was 96.25%, the “% growth” value (HS 578T) was 128.54% and the “% growth” value (MALME-3M) was 109.72%. For the same compound, the “% growth” value (A498) was 116.23%, the “% growth” value (SK-OV-3) was 123.58% and the “% growth” value (EKVX) was 100.22%. The “% growth” value (SR) was 81.00%, the “% growth” value (OVCAR-3) was 112.26% and the “% growth” value (TK-10) was 113.67%. For the same compound, the “% growth” value (SNB-19) was 98.41%, the “% growth” value (M14) was 111.66% and the “% growth” value (MDA-MB-468) was 102.27%. For the same compound, the “% growth” value (786-0) was 99.27%, the “% growth” value (OVCAR-8) was 110.09% and the “% growth” value (RXF 393) was 119.00%. For the same compound, the “% growth” value (HCC-2998) was 105.50%, the “% growth” value (SK-MEL-2) was 109.65% and the “% growth” value (HT29; one dose 10^-5 M) was 98.85%. For the same compound, the “% growth” value (IGROV1; one dose 10^-5 M) was 103.95%, the “% growth” value (KM12) was 100.03% and the “% growth” value (SNB-75) was 99.29%. For the same compound, the “% growth” value (HCT-15) was 103.81%, the “% growth” value (K-562; one dose 10^-5 M) was 98.62% and the “% growth” value (SK-MEL-28) was 108.56%. The “% growth” value (SN12C) was 99.89%, the “% growth” value (UACC-62) was 100.76% and the “% growth” value (LOX IMVI) was 109.11%. For the same compound, the “% growth” value (SW-620) was 103.87%, the “% growth” value (SF-268) was 108.46% and the “activity on all 60 cancer cell lines tested (in words)” value ([1]; one dose) was “weak activity”. The Mean % growth ([1]; one dose 10^-5 M, 48 h, mean over all cell lines) was 105.07%.
N#Cc1c(N)nc(S)nc1-c1ccc(Cl)cc1 [Compound 1b] gave a percent cell growth at 10 µM (PC-3; Homo sapiens) of 56.4%, a % growth at 10 µM (ACHN; Homo sapiens) of 77.2% and a % growth at 10 µM (NCI-H522; Homo sapiens) of 58.7%. The % growth at 10 µM (NCI-H226; Homo sapiens) was 78.7%, the percent cell growth at 10 µM (OVCAR-5; Homo sapiens) was 91.6% and the activity at 10 µM (NCI-H460; [2]) was 86.7%. It also gave a % growth at 10 µM (HOP-62; Homo sapiens) of 74.6%, a % growth at 10 µM (DU-145; Homo sapiens) of 86.8% and a percent cell growth at 10 µM (UACC-257; Homo sapiens) of 102%. For the same compound, the % cell growth at 10 µM (SF-295; Homo sapiens) was 76.2%, the activity at 10 µM (MDA-MB-435; [2]) was 86.5% and the activity at 10 µM (SK-MEL-5; [2]) was 85.9%. It also gave a % growth at 10 µM (HOP-92; Homo sapiens) of 43.5%, a % cell growth at 10 µM (UO-31; Homo sapiens, UO-31, 48 h) of 45.4% and a % growth at 10 µM (HL-60(TB); Homo sapiens) of 69.6%. The activity at 10 µM (HCT-116; [2]) was 76.5%, the % growth at 10 µM (SF-539; Homo sapiens) was 71.9% and the activity at 10 µM (MOLT-4; [2]) was 50.7%. The % growth at 10 µM (MDA-MB-231/ATCC; Homo sapiens) was 53.7%, the % growth at 10 µM (A549/ATCC; Homo sapiens) was 86% and the % growth at 10 µM (U251; Homo sapiens, U-251, one dose 10^-5 M) was 81.6%. For the same compound, the % growth at 10 µM (CAKI-1; Homo sapiens, CAKI-1, 48 h) was 52%, the % cell growth at 10 µM (CCRF-CEM; Homo sapiens) was 65.5% and the % growth at 10 µM (OVCAR-4; Homo sapiens) was 76.2%. The activity at 10 µM (MCF7; [2]) was 67.7%, the % growth at 10 µM (RPMI-8226; Homo sapiens) was 47.2% and the activity at 10 µM (NCI-H23; [2]) was 85.5%. It also gave an activity at 10 µM (T-47D; Homo sapiens, T47D, read-out: % growth) of 58.3%, an activity at 10 µM (HS 578T; [2]) of 74% and a % growth at 10 µM (MALME-3M; Homo sapiens) of 99.6%. The % growth at 10 µM (A498; Homo sapiens) was 77.4%, the % growth at 10 µM (SK-OV-3; Homo sapiens) was 84.3% and the % cell growth at 10 µM (EKVX; Homo sapiens) was 61%. The percent cell growth at 10 µM (SR; Homo sapiens) was 66.9%, the % growth at 10 µM (OVCAR-3; Homo sapiens) was 93.4% and the % cell growth at 10 µM (TK-10; Homo sapiens) was 126%. It also gave an activity at 10 µM (SNB-19; [2]) of 60.4%, a % growth at 10 µM (M14; Homo sapiens) of 99.9% and a percent cell growth at 10 µM (MDA-MB-468; Homo sapiens) of 81.1%. It also gave a % growth at 10 µM (786-0; Homo sapiens) of 85%, a % growth of cells at 10 µM (OVCAR-8; Homo sapiens) of 82.2% and an activity at 10 µM (RXF 393; Homo sapiens, RXF 393, 48 h, read-out: % growth) of 55.5%. The % growth at 10 µM (HCC-2998; Homo sapiens) was 99.6%, the % growth at 10 µM (SK-MEL-2; Homo sapiens) was 96.5% and the % growth at 10 µM (HT29; Homo sapiens, HT-29, one dose 10^-5 M) was 91.1%. It also gave an activity at 10 µM (IGROV1; Homo sapiens, IGROV-1, one dose 10^-5 M, read-out: % growth) of 57.9%, a % growth at 10 µM (KM12; Homo sapiens) of 82% and a % growth at 10 µM (SNB-75; Homo sapiens) of 42.2%. For the same compound, the activity at 10 µM (HCT-15; [2]) was 86%, the % growth at 10 µM (K-562; Homo sapiens, K562, one dose 10^-5 M) was 68.1% and the % cell growth at 10 µM (SK-MEL-28; Homo sapiens) was 95.6%. For the same compound, the % growth at 10 µM (SN12C; Homo sapiens) was 75.7%, the % growth at 10 µM (UACC-62; Homo sapiens) was 66.8% and the activity at 10 µM (LOX IMVI; [2]) was 79.2%. The % growth at 10 µM (SW-620; Homo sapiens) was 87.3%, the activity at 10 µM (SF-268; [2]) was 69.7% and the activity at 10 µM ([1]; Homo sapiens, 60 cell, 48 h, read-out: Mean % growth) was 75.7%.
